In US11230527B2, “Solid forms of 2-(5-(4-(2-morpholinoethoxy)phenyl)pyridin-2-yl)-n- benzylacetamide” (Athenex HK Innovative Limited, priority 2017, dated 2022):

Columns and labels:
Type in all cases: physicochemical
[1] = HPLC chemical stability after storage at various conditions; conditions: for Area Percent at 248 nm T1 week: 1 week; for Area Percent at 248 nm T2 week: 2 weeks; for Area Percent at 248 nm T4 week: 4 weeks; for Area Percent at 248 nm T8 week: 8 weeks
Method: High-performance Liquid Chromatography (HPLC) analysis was performed to determine the chemical stability of Forms A, B, and C of Compound A after storage at various conditions, using an Agilent 1100 system with DAD. Chemical stability was estimated by measuring and comparing the area percent of the material peak at various time points. For High-performance Liquid Chromatography (HPLC) analysis, an Agilent 1100 system with DAD was used.

[2] = XRPD physical form stability under storage conditions; conditions: up to eight weeks
Method: (§1) XRPD analysis is carried out using a diffractometer running in reflection mode. The 2-theta position is calibrated against a standard before running the experiment. XRPD analysis was carried out on a Panalytical X'Pert^3 Powder XRPD on a Si zero-background holder, scanning the samples between 3 and 40° 2-theta. The 2-theta position was calibrated against Panalytical 640 Si powder standard. The test material was gently compressed on a glass disc inserted into a sample holder. The sample was then loaded into a Panalytical X'Pert^3 Powder XRPD diffractometer running in reflection mode and analyzed, using the following experimental conditions.

[3] = Dynamic Vapor Sorption (DVS)
Method: Dynamic Vapor Sorption (DVS) was measured using a SMS (Surface Measurement Systems) DVS Intrinsic. The test was performed at 25° C. while the RH was varied from 0% to 95% at 10% increments in the range of 0% RH-90% RH and at 5% increment up to 95% RH. The change in mass after each increase or decrease in the RH was recorded as a percentage of the original mass of the starting material. Dynamic Vapor Sorption (DVS) was measured using a SMS (Surface Measurement Systems) DVS Intrinsic, using the following parameters: [table]

Solubility estimation = conditions: thermodynamic from solid
Method: Solubility of the solid forms of the present application in a variety of solvents is measured. Solvent is added to a sample until the total volume reaches 100 μL, followed by 100 μL per step until the sample is dissolved or the concentration is less than <1.0 mg/mL. The approximate solubility is then calculated.
Solubility of the solid forms of the present application in a variety of solvents was measured according to the following procedures. A sample (˜2 mg) was weighed into a 4-mL glass vial. Solvent was added into the vial stepwise at 50 μL per step until the total volume was 100 μL, followed by 100 μL per step until concentration was less than 1.0 mg/mL. The solutions were mixed thoroughly after each addition by sonication for 2 minutes and vortexing for 1 minute. The addition of solvent was complete if the sample was dissolved or the concentration was <1.0 mg/mL. The volumes of solvent (V1 and V2) were recorded, and approximate solubility was calculated.

[4] = XRPD after air-drying or vacuum drying
Method: as §1, with “XRPD” for “XRPD analysis is carried out using a diffractometer running in reflection mode. The 2-theta position is calibrated against a standard before running the experiment. XRPD”

Area Percent at 248 nm T1 week ([1]; 25° C./60% RH): 99.8 Area Percent
Area Percent at 248 nm T2 week ([1]; 25° C./60% RH): 99.8 Area Percent
Area Percent at 248 nm T4 week ([1]; 25° C./60% RH): 99.8 Area Percent
Area Percent at 248 nm T8 week ([1]; 25° C./60% RH): 99.8 Area Percent
Area Percent at 248 nm T0 ([1]; 25° C./60% RH): 99.8 Area Percent
Area Percent at 248 nm T1 week ([1]; 40° C./75% RH): 99.8 Area Percent
Area Percent at 248 nm T2 week ([1]; 40° C./75% RH): 99.8 Area Percent
Area Percent at 248 nm T4 week ([1]; 40° C./75% RH): 99.8 Area Percent
Area Percent at 248 nm T8 week ([1]; 40° C./75% RH): 99.8 Area Percent
Area Percent at 248 nm T0 ([1]; 40° C./75% RH): 99.8 Area Percent
Area Percent at 248 nm T1 week ([1]; 55° C./75% RH): 99.8 Area Percent
Area Percent at 248 nm T2 week ([1]; 55° C./75% RH): 99.8 Area Percent
Area Percent at 248 nm T4 week ([1]; 55° C./75% RH): 99.7 Area Percent
Area Percent at 248 nm T8 week ([1]; 55° C./75% RH): 99.8 Area Percent
Area Percent at 248 nm T0 ([1]; 55° C./75% RH): 99.8 Area Percent
Area Percent at 248 nm T1 week ([1]; Ambient): 99.8 Area Percent
Area Percent at 248 nm T2 week ([1]; Ambient): 99.7 Area Percent
Area Percent at 248 nm T4 week ([1]; Ambient): 99.7 Area Percent
Area Percent at 248 nm T8 week ([1]; Ambient): 99.7 Area Percent
Area Percent at 248 nm T0 ([1]; Ambient): 99.8 Area Percent
change in HPLC area percent purity (LCAP) ([1]; selected storage conditions, time points over eight-week study): no significant decrease
change in physical form (XRPD) ([2]; 25° C./60% RH): no change in physical form
change in physical form (XRPD) ([2]; 40° C./75% RH): no change in physical form
change in physical form (XRPD) ([2]; 55° C./75% RH): no change in physical form
change in physical form (XRPD) ([2]; ambient conditions): no change in physical form
hygroscopicity [3]: non-hygroscopic
XRPD pattern after exposure to DVS experiment ([3]; 25° C. and RH up to 95%): does not change
water uptake ([3]; between 0 and 80% RH at between 25° C. and 45° C.): less than 0.2 % w/w
solubility thermodynamic (Solubility estimation; aqueous): < 1.5 mg/mL
solubility (Solubility estimation; water, aqueous solution (e.g., water), room temperature, read-out: aqueous solubility (dissolved completely)): > 20 mg/mL
crystallinity after drying (XRPD) [4]: no loss of crystallinity
Structure (SMILES): O=C(Cc1ccc(-c2ccc(OCCN3CCOCC3)cc2)cn1)NCc1ccccc1 [Form A, 2-(5-(4-(2-morpholinoethoxy)phenyl)pyridin-2-yl)-N-benzylacetamide]
